Measurements taken from US20220089609A1, “SUBSTITUTED QUINAZOLINONE DERIVATIVES AND THEIR USE AS POSITIVE ALLOSTERIC MODULATORS OF MGLUR4” (DOMAIN THERAPEUTICS, priority 2018, published 2022).
Structures can show the parent of a compound that is named as a salt.

Target: T1, human mGluR4 (hmGluR4) (Homo sapiens, UniProt Q14833)
T1 construct: expressed in transfected cells; host or cells: HEK-293 cells, transient co-transfection by electroporation
Test: Calcium assay EC50 determination, positive allosteric modulator activity on hmGluR4 transiently over-expressed in HEK-293 cells
Format: cell-based
Conditions: for EC50: PAM mode with EC20 glutamate, hmGluR4 in HEK-293 cells, intracellular calcium (Fluo4AM), read-out: mGluR4 positive allosteric modulator activity, half maximal effective concentration (EC50); for PAM activity on mGluR4: up to 100 μM
Method: Compounds are tested successively for their agonist and positive allosteric modulator activities on human mGluR4 (hmGluR4) transiently over-expressed in HEK-293 cells. Compounds exert agonist activity if, by themselves in absence of glutamate, they are able to activate hmGluR4; and they exert positive allosteric modulator activity if they increase the action of glutamate.
HEK-293 cells are maintained in Modified Eagle's Medium supplemented with 10% Foetal Calf Serum, 1% Penicillin/Streptomycin and 1% non-essential amino acids at 37° C./5% CO2.
Cells are co-transfected by electroporation with four DNA plasmids encoding hmGluR4, a chimeric G protein allowing redirection of the activation signal to intracellular calcium pathway, and glutamate transporters to decrease extracellular glutamate concentration so as to limit receptor desensitization. After transfection, cells are cultured for 24 h at 37° C./5% CO2.
Calcium Assay EC50 determination
Receptor activity is detected by changes in intracellular calcium measured using the fluorescent Ca^2+ sensitive dye, Fluo4AM (Molecular Probes).
On the day of the assay, culture medium is aspirated and replaced during 3 hours by medium without serum supplemented with 1% Glutamax, 1% Penicillin/Streptomycin and 1% non-essential amino acids. Then, cells are washed with freshly prepared buffer B (HBSS 1× (PAA), Hepes 20 mM, MgSO4-7H2O 1 mM, Na2CO3 3.3 mM, CaCl2-2H2O 1.3 mM, 0.1% BSA, Probenecid 2.5 mM) and loaded at 37° C. in 5% CO2 for 1.5 hours with buffer B containing 1 μM Fluo4AM, 0.1 mg/mL Pluronic Acid, 7 μg/mL Glutamate Pyruvate Transaminase and 2 mM sodium pyruvate. Afterwards cells are washed twice with buffer B. Then cells are detached using StemPro Accutase (Fisher Scientific), resuspended in buffer B and seeded in 384 well plate at a density of 30,000 cells per well. Addition of compounds and intracellular Ca^2+ measurements (excitation 485 nm, emission 525 nm) are performed by the fluorescence microplate reader FLIP^Tetra (Molecular Devices).
Agonist and positive allosteric modulator activities of compounds are consecutively evaluated on the same cell plate. Agonist activity is first tested during 10 minutes with the addition of compound alone on the cells. Then, cells are stimulated by an EC20 glutamate concentration and fluorescence is recorded for additional 3 minutes. EC20 glutamate concentration is the concentration giving 20% of the maximal glutamate response. Agonist or positive allosteric modulator activity(ies) are evaluated in comparison to basal signals evoked by buffer B or EC20 glutamate alone, respectively.

T1 sequence (Q14833 33-912): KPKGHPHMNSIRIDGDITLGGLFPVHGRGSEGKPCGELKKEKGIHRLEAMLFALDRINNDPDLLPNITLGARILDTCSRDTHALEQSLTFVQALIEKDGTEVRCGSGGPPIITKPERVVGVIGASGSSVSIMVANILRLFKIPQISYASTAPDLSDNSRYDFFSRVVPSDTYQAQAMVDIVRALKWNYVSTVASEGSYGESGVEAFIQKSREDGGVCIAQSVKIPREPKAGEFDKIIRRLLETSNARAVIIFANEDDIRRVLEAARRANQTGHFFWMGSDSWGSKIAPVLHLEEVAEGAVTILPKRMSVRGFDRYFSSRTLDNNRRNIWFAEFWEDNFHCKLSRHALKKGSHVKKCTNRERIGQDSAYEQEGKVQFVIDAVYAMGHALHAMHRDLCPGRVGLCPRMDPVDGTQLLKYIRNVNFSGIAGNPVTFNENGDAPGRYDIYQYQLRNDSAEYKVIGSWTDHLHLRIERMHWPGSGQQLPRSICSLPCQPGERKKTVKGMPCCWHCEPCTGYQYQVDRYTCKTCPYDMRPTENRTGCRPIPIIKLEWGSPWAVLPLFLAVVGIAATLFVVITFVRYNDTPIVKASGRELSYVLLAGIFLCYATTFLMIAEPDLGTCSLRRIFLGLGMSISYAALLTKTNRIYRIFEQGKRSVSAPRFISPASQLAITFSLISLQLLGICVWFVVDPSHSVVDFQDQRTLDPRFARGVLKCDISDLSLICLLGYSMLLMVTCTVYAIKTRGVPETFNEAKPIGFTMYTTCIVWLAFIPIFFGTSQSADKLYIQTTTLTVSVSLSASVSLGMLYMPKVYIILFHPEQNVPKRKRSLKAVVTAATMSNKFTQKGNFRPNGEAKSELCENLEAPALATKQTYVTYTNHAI

| SMILES | EC50 [nM] | PAM activity on mGluR4 |
| --- | --- | --- |
| O=c1[nH]c(-c2cc3ccsc3cn2)nc2c(F)cc(OCCCc3ccncc3)cc12 [Compound 75, 8-Fluoro-6-(3-pyridin-4-yl-propoxy)-2-thieno[2,3-c]pyridin-5-yl-3H-quinazolin-4-one] | 100 to 1000 | – |
| CC(=O)N1CCC(COc2ccc3nc(-c4cc(C(F)(F)F)ccn4)[nH]c(=O)c3c2)CC1 [Compound 44, 6-(1-Acetyl-piperidin-4-ylmethoxy)-2-(4-trifluoromethyl-pyridin-2-yl)-3H-quinazolin-4-one] | 100 to 1000 | – |
| O=c1[nH]c(-c2cc3ccsc3cn2)nc2cc(C(F)(F)F)c(OCCCc3ccncc3)cc12 [Compound 70, 6-(3-Pyridin-4-yl-propoxy)-2-thieno[2,3-c]pyridin-5-yl-7-trifluoromethyl-3H-quinazolin-4-one hydrochloride] | 1000 to 10000 | – |
| Cc1cc(OC[C@H]2CCOC2)cc2c(=O)[nH]c(-c3cc4ccsc4cn3)nc12 [Compound 80-S, S-8-Methyl-6-(tetrahydro-furan-3-ylmethoxy)-2-thieno[2,3-c]pyridin-5-yl-3H-quinazolin-4-one] | ≤ 100 | – |
| O=c1[nH]c(-c2cc3cccn3cn2)nc2ccc(OC3CN(c4ccncn4)C3)cc12 [Compound 27, 6-(1-Pyrimidin-4-yl-azetidin-3-yloxy)-2-pyrrolo[1,2-c]pyrimidin-3-yl-3H-quinazolin-4-one] | > 10000 | – |
| O=c1[nH]c(-c2cc(Br)ccn2)nc2ccc(OCCCc3ccncc3)cc12 [Compound 18, 2-(4-bromo-2-pyridyl)-6-[3-(4-pyridyl)propoxy]-3H-quinazolin-4-one] | 100 to 1000 | – |
| O=c1[nH]c(-c2cc3ccsc3cn2)nc2c(C3CC3)cc(OCCCc3ccncc3)cc12 [Compound 73, 8-Cyclopropyl-6-(3-pyridin-4-yl-propoxy)-2-thieno[2,3-c]pyridin-5-yl-3H-quinazolin-4-one hydrochloride] | 100 to 1000 | – |
| O=c1[nH]c(-c2cc3cccn3cn2)nc2ccc(OCCN3CCOCC3)cc12 [Compound 33, 6-(2-Morpholin-4-yl-ethoxy)-2-pyrrolo[1,2-c]pyrimidin-3-yl-3H-quinazolin-4-one hydrochloride] | > 10000 | – |
| CC(=O)N1CCC(Oc2ccc3nc(-c4cc5ccsc5cn4)[nH]c(=O)c3c2)C1 (stereo not drawn) [Compound 51, 6-(1-Acetyl-pyrrolidin-3-yloxy)-2-thieno[2,3-c]pyridin-5-yl-3H-quinazolin-4-one] | 100 to 1000 | – |
| CC(C)(C)OC(=O)N1CCC(Oc2ccc3nc(-c4ccccn4)[nH]c(=O)c3c2)CC1 [Compound 39, 4-(4-Oxo-2-pyridin-2-yl-3,4-dihydro-quinazolin-6-yloxy)-piperidine-1-carboxylic acid tert-butyl ester] | 1000 to 10000 | – |
| O=c1[nH]c(-c2cc3ccsc3cn2)nc2ccc(OCCCc3ccncc3)nc12 [Compound 66, 6-(3-Pyridin-4-yl-propoxy)-2-thieno[2,3-c]pyridin-5-yl-3H-pyrido[3,2-d]pyrimidin-4-one hydrochloride] | 100 to 1000 | – |
| CCC(=O)N1CC(Oc2ccc3nc(-c4cc5ccsc5cn4)[nH]c(=O)c3c2)C1 [Compound 30, 6-(1-Propionyl-azetidin-3-yloxy)-2-thieno[2,3-c]pyridin-5-yl-3H-quinazolin-4-one] | 100 to 1000 | – |
| CCc1cc(OCCCc2ccncc2)cc2c(=O)[nH]c(-c3cc4ccsc4cn3)nc12 [Compound 74, 8-Ethyl-6-(3-pyridin-4-yl-propoxy)-2-thieno[2,3-c]pyridin-5-yl-3H-quinazolin-4-one hydrochloride] | 100 to 1000 | – |
| Cl.O=c1[nH]c(-c2cccc(Cl)c2)nc2ccc(OCCCc3ccncc3)cc12 [Compound 20, 2-(3-chlorophenyl)-6-[3-(4-pyridyl)propoxy]-3H-quinazolin-4-one hydrochloride] | – | no PAM activity |
| O=c1[nH]c(-c2cccc(C(F)(F)F)c2)nc2ccc(OCCCc3ccncc3)cc12 [Compound 21, 6-[3-(4-pyridyl)propoxy]-2-[3-(trifluoromethyl)phenyl]-3H-quinazolin-4-one hydrochloride] | – | no PAM activity |

The next lines start with the values.

| EC50 [nM] | PAM activity on mGluR4 | SMILES |
| --- | --- | --- |
| 100 to 1000 | – | CCC(=O)N1CC[C@H](Oc2cc(C)c3nc(-c4cc5ccsc5cn4)[nH]c(=O)c3c2)C1 (stereo in doubt) [Compound 82-R, R-8-Methyl-6-(1-propionyl-pyrrolidin-3-yloxy)-2-thieno[2,3-c]pyridin-5-yl-3H-quinazolin-4-one] |
| 100 to 1000 | – | Cc1cc(C(=O)N2CCOCC2)cc2c(=O)[nH]c(-c3cc4cccn4cn3)nc12 [Compound 135, 8-Methyl-6-(morpholine-4-carbonyl)-2-pyrrolo[1,2-c]pyrimidin-3-yl-3H-quinazolin-4-one] |
| 100 to 1000 | – | COCC1CCN(Cc2cc(C)c3nc(-c4cc5sccc5cn4)[nH]c(=O)c3c2)CC1 [Compound 157, 6-((4-(Methoxymethyl)piperidin-1-yl)methyl)-8-methyl-2-(thieno[3,2-c]pyridin-6-yl)quinazolin-4(3H)-one hydrochloride] |
| 100 to 1000 | – | CCC(=O)N1CC(Oc2cc(C)c3nc(-c4cc(C(F)(F)F)ccn4)[nH]c(=O)c3c2)C1 [Compound 103, 8-Methyl-6-(1-propionyl-azetidin-3-yloxy)-2-(4-trifluoromethyl-pyridin-2-yl)-3H-quinazolin-4-one] |
| ≤ 100 | – | Cc1cc(OCC2CCOC2)cc2c(=O)[nH]c(-c3cc(C(F)(F)F)ccn3)nc12 (stereo not drawn) [Compound 102, 8-Methyl-6-(tetrahydro-furan-3-ylmethoxy)-2-(4-trifluoromethyl-pyridin-2-yl)-3H-quinazolin-4-one] |
| ≤ 100 | – | Cc1cc(CN2CCOC(C)(C)C2)cc2c(=O)[nH]c(-c3cc4sccc4cn3)nc12 [Compound 153, 6-[(2,2-Dimethylmorpholin-4-yl)methyl]-8-methyl-2-thieno[3,2-c]pyridin-6-yl-3H-quinazolin-4-one hydrochloride] |
| ≤ 100 | – | Cc1cc(N2CCC3(CCOCC3)CC2)cc2c(=O)[nH]c(-c3cc4cccn4cn3)nc12 [Compound 108, 8-methyl-6-(3-oxa-9-aza-spiro[5.5]undec-9-yl)-2-pyrrolo[1,2-c]pyrimidin-3-yl-3H-quinazolin-4-one] |
| 100 to 1000 | – | Cc1cc(N2CCC3(CCOCC3)CC2)nc2c(=O)[nH]c(-c3cc4ccsc4cn3)nc12 [Compound 113] |
| ≤ 100 | – | Cc1cc(N2CCC3(CCOCC3)CC2)cc2c(=O)[nH]c(-c3cc4ccsc4cn3)nc12 [Compound 91, 8-Methyl-6-(3-oxa-9-aza-spiro[5.5]undec-9-yl)-2-thieno[2,3-c]pyridin-5-yl-3H-quinazolin-4-one] |
| 100 to 1000 | – | Cc1cc(O[C@@H]2CCN(C3COC3)C2)cc2c(=O)[nH]c(-c3cc4ccsc4cn3)nc12 [Compound 83-R, R-8-Methyl-6-(1-oxetan-3-yl-pyrrolidin-3-yloxy)-2-thieno[2,3-c]pyridin-5-yl-3H-quinazolin-4-one] |
| 100 to 1000 | – | CC(=O)N1CCN(CCOc2cc(C)c3nc(-c4cc5ccsc5cn4)[nH]c(=O)c3c2)CC1 [Compound 97, 6-[2-(4-acetyl-piperazin-1-yl)-ethoxy]-8-methyl-2-thieno[2,3-c]pyridin-5-yl-3H-quinazolin-4-one hydrochloride] |
| ≤ 100 | – | Cc1cc(N2CCC3(CCOCC3)CC2)cc2c(=O)[nH]c(-c3cc(C(F)(F)F)ccn3)nc12 [Compound 105, 8-Methyl-6-(3-oxa-9-aza-spiro[5.5]undec-9-yl)-2-(4-trifluoromethyl-pyridin-2-yl)-3H-quinazolin-4-one] |
| ≤ 100 | – | Cc1cc(O[C@H]2CCN(C3COC3)C2)cc2c(=O)[nH]c(-c3cc4ccsc4cn3)nc12 [Compound 83-S, S-8-Methyl-6-(1-oxetan-3-yl-pyrrolidin-3-yloxy)-2-thieno[2,3-c]pyridin-5-yl-3H-quinazolin-4-one] |
| ≤ 100 | – | Cc1cc(CN2CCC(C(=O)N(C)C)CC2)cc2c(=O)[nH]c(-c3cc4sccc4cn3)nc12 [Compound 156, N,N-Dimethyl-14(8-methyl-4-oxo-2-(thieno[3,2-c]pyridin-6-yl)-3,4-dihydroquinazolin-6-yl)methyl)piperidine-4-carboxamide hydrochloride] |
| ≤ 100 | – | Cc1cc(O[C@H]2CC(=O)N(C)C2)cc2c(=O)[nH]c(-c3cc4sccc4cn3)nc12 [Compound 140-S, 8-Methyl-6-[(3S)-1-methyl-5-oxo-pyrrolidin-3-yl]oxy-2-thieno[3,2-c]pyridin-6-yl-3H-quinazolin-4-one] |
